These are literature values, as cited in article PMC6428196 (Psychopharmacology, 2018).

For data set [1] the following is noted: in vivo.
The conditions of data set [2]: human, in vivo, sc.
A further data set has as its system baboons. As to conditions: ref Holtyn et al. 2017.

Take `CCCCCCCCCCCCCCCC(=O)N[C@@H](CCC(=O)NCCCC[C@H](NC(=O)[C@H](C)NC(=O)[C@H](C)NC(=O)[C@H](CCC(N)=O)NC(=O)CNC(=O)[C@H](CCC(=O)O)NC(=O)[C@H](CC(C)C)NC(=O)[C@H](Cc1ccc(O)cc1)NC(=O)[C@H](CO)NC(=O)[C@H](CO)NC(=O)[C@@H](NC(=O)[C@H](CC(=O)O)NC(=O)[C@H](CO)NC(=O)[C@@H](NC(=O)[C@H](Cc1ccccc1)NC(=O)[C@@H](NC(=O)CNC(=O)[C@H](CCC(=O)O)NC(=O)[C@H](C)NC(=O)[C@@H](N)Cc1cnc[nH]1)[C@@H](C)O)[C@@H](C)O)C(C)C)C(=O)N[C@@H](CCC(=O)O)C(=O)N[C@@H](Cc1ccccc1)C(=O)N[C@H](C(=O)N[C@@H](C)C(=O)N[C@@H](Cc1c[nH]c2ccccc12)C(=O)N[C@@H](CC(C)C)C(=O)N[C@H](C(=O)N[C@@H](CCCNC(=N)N)C(=O)NCC(=O)N[C@@H](CCCNC(=N)N)C(=O)NCC(=O)O)C(C)C)[C@@H](C)CC)C(=O)O` [liraglutide]: the “Brain penetration after systemic administration” value in data set [1] is “penetrate the brain”. In data set [2], the Bioavailability is listed as 55%.

On to `O=C1CC[C@@]2(O)[C@H]3Cc4ccc(O)c5c4[C@@]2(CCN3CC2CC2)[C@H]1O5` [naltrexone], for which the Drinking result with baboons is reported as “reduced drinking to a degree comparable to our liraglutide effect”.
